From ChEMBL document CHEMBL1142344, “Rapid assembly of diverse and potent allosteric Akt inhibitors” (Bioorg Med Chem Lett, 2008)

Tests used:
[1] = Half life in dog at 0.25 mg/kg, iv; type: ADME, organism-based, Canis lupus familiaris; set-up: dose 0.25 mg/kg, route intravenous; settings: in vivo
[2] = Clearance in dog at 0.25 mg/kg, iv; type: ADME, organism-based, Canis lupus familiaris; set-up: dose 0.25 mg/kg, route intravenous; settings: in vivo
[3] = target: T1, RAC-beta serine/threonine-protein kinase (Homo sapiens, UniProt P31751); test: Inhibition of human recombinant Akt2
[4] = target: T2, RAC-alpha serine/threonine-protein kinase (Homo sapiens, UniProt P31749); test: Inhibition of human recombinant Akt1
[5] = target: T2, RAC-alpha serine/threonine-protein kinase; test: Inhibition of Akt1 phosphorylation in human C33a cells; type: cell-based
[6] = target: T1, RAC-beta serine/threonine-protein kinase; test: Inhibition of Akt2 phosphorylation in human C33a cells; type: cell-based

T2 sequence (P31749 whole entry): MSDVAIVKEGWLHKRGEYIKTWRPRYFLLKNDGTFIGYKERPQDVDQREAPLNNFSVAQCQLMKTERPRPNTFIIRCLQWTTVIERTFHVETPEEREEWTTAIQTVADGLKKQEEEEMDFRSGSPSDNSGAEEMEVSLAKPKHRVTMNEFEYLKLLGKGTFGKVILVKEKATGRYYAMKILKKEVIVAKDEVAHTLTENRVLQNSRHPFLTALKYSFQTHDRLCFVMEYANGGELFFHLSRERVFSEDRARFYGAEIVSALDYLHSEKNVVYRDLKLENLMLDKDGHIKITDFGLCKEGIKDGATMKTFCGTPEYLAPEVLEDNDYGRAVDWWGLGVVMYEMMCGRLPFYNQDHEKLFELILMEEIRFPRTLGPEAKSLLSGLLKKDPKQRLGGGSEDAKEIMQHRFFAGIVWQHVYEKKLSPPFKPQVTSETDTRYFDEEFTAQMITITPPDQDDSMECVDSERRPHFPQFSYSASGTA
T1 sequence (P31751 whole entry): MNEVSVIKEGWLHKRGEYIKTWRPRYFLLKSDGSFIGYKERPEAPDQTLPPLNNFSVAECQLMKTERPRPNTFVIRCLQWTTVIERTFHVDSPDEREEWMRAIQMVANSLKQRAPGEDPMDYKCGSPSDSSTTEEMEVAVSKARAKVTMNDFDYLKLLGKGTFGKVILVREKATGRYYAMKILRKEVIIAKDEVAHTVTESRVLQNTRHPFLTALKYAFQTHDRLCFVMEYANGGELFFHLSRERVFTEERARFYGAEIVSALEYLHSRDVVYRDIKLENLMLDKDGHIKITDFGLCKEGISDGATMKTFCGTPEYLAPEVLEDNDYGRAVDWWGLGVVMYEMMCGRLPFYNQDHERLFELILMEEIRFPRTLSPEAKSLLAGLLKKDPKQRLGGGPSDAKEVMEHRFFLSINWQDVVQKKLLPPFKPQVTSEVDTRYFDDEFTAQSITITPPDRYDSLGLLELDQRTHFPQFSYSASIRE

| SMILES | half-life [1] | clearance [2] | IC50 [3] | IC50 [4] | IC50 [5] | IC50 [6] |
| --- | --- | --- | --- | --- | --- | --- |
| Nc1ncnc2nc(-c3ccc(CN4CCC(c5nc6ccc(F)cc6[nH]5)CC4)cc3)c(-c3ccccc3)cc12 | 2.8 h | 5.6 mL/min/kg | – | – | – | – |
| Nc1nn(CCc2c[nH]cn2)c2nc(-c3ccc(CN4CCC(n5c(=O)[nH]c6ccccc65)CC4)cc3)c(-c3ccccc3)cc12 | – | – | 839 nM | 21 nM | – | – |
| Nc1ncnc2nc(-c3ccc(CN4CCC(n5cnc6c(N)ncnc65)CC4)cc3)c(-c3ccccc3)cc12 | – | – | 696 nM | 129 nM | – | – |
| Nc1nn(CCO)c2nc(-c3ccc(CN4CCC(n5c(=O)[nH]c6ccccc65)CC4)cc3)c(-c3ccccc3)cc12 | – | – | 1230 nM | 131 nM | – | – |
| CNc1nc(-c2ccc(CN3CCC(n4c(=O)[nH]c5ccccc54)CC3)cc2)c(-c2ccccc2)cc1C#N | – | – | 8140 nM | 2250 nM | – | – |
| Nc1ncnc2nc(-c3ccc(CN4CCC(c5cc(-c6ccncc6)[nH]n5)CC4)cc3)c(-c3ccccc3)cc12 | – | – | 85 nM | 21 nM | 463 nM | 1200 nM |
| CN(C)c1nc(-c2ccc(CN3CCC(n4c(=O)[nH]c5ccccc54)CC3)cc2)c(-c2ccccc2)cc1C#N | – | – | 15400 nM | 8460 nM | – | – |
| Nc1n[nH]c2nc(-c3ccc(CN4CCC(n5c(=O)[nH]c6ccccc65)CC4)cc3)c(-c3ccccc3)cc12 | – | – | 7360 nM | 86 nM | – | – |
| N#Cc1cc(-c2ccccc2)c(-c2ccc(CN3CCC(n4c(=O)[nH]c5ccccc54)CC3)cc2)nc1Cl | – | – | 7360 nM | 253 nM | – | – |
| Nc1nc(O)nc2nc(-c3ccc(CN4CCC(n5c(=O)[nH]c6ccccc65)CC4)cc3)c(-c3ccccc3)cc12 | – | – | 577 nM | 244 nM | – | – |
| Cn1nc(N)c2cc(-c3ccccc3)c(-c3ccc(CN4CCC(n5c(=O)[nH]c6ccccc65)CC4)cc3)nc21 | – | – | 556 nM | 121 nM | – | – |
| Nc1nc(N)c2cc(-c3ccccc3)c(-c3ccc(CN4CCC(n5c(=O)[nH]c6ccccc65)CC4)cc3)nc2n1 | – | – | 274 nM | 107 nM | – | – |
| Nc1ncnc2nc(-c3ccc(CN4CCC(n5c(=O)[nH]c6ccccc65)CC4)cc3)c(-c3ccccc3)cc12 | – | – | 259 nM | 81 nM | 1830 nM | 5080 nM |
| COc1nc(-c2ccc(CN3CCC(n4c(=O)[nH]c5ccccc54)CC3)cc2)c(-c2ccccc2)cc1C#N | – | – | 37700 nM | 5550 nM | – | – |
| Cc1nc2ccccc2n1C1CCN(Cc2ccc(-c3nc4ncnc(N)c4cc3-c3ccccc3)cc2)CC1 | – | – | 281 nM | 69 nM | 221 nM | 344 nM |
| N#Cc1cc(-c2ccccc2)c(-c2ccc(CN3CCC(n4c(=O)[nH]c5ccccc54)CC3)cc2)nc1N | – | – | 2060 nM | 495 nM | – | – |
